Assay results reported in US20140093457A1, “Compositions, methods and kits for remineralization and inhibition of dental caries in teeth” (President and Fellows of Harvard College, priority 2010, published 2014).
Entries after “also recorded” stand apart in the source; their conditions may differ.

Tests used:
[1] = Detection probes on interproximal models of extracted human teeth; conditions: for degree of detection: early stage caries lesion, optical observation; for emission wavelength (nm) / excitation/absorbance wavelength (nm): probe bound to interproximal enamel caries; for optical observation of early stage caries lesion with bound probe (photograph): tooth preparation illuminated and photographed
Experimental: Interproximal models of extracted human teeth (molars and premolars) were fabricated using silicon impression materials. Interproximal enamel caries at about […] depth and at about 1.5 mm depth were prepared by using areas of interproximal contact regions. The dental preparations having synthetic caries were assessed by radiographic films (bitewings) and a microscope.
A cotton ball was saturated with the detection probe, and placed in contact with the region of the interproximal enamel caries. The bound probe was observed by illuminating over a varying set of different wavelengths of excitation light, followed by detecting light of fluorescent emissions. Furthermore, absorbance of the illuminating wavelengths was detected as appropriate for each probe.
Each tooth preparation having interproximal enamel caries and bound probe was illuminated and photographed.

[2] = RFU comparison of solutions to release OsteoSense 750 from HA
Experimental: Variables included conditions of pH, temperature, and presence of 1% calcium chloride.
Three conditions were tested: incubation for 15 minutes at 37° C. after vortexing; adjusting pH to 6.5 at 23° C. after vortexing; and addition of 1% calcium chloride to each solution and incubation at room temperature after vortexing.

[3] = 1% solution with calcium chloride (1%), room temperature
[4] = 1% solution, 15 minutes at 37° C.
[5] = 1% solution, pH 6.5, room temperature
[6] = 5% solution with calcium chloride (1%), room temperature
[7] = 5% solution, 15 minutes at 37° C.
[8] = 5% solution, pH 6.5, room temperature
[9] = 10% solution with calcium chloride (1%), room temperature
[10] = 10% solution, 15 minutes at 37° C.
[11] = 10% solution, pH 6.5, room temperature
[12] = 20% solution with calcium chloride (1%), room temperature
[13] = 20% solution, 15 minutes at 37° C.
[14] = 20% solution, pH 6.5, room temperature

emission wavelength (nm) [1] | excitation/absorbance wavelength (nm) [1] [nm] | Structure (SMILES) | degree of detection [1] | optical observation of early stage caries lesion with bound probe (photograph) [1] | % released of total OsteoSense [2, 3] [%] | % released of total reference value [2, 3] [%] | Raw RFU value [2, 3] [RFU] | % released of total OsteoSense [2, 4] [%] | % released of total reference value [2, 4] [%] | Raw RFU value [2, 4] [RFU] | % released of total OsteoSense [2, 5] [%] | % released of total reference value [2, 5] [%] | Raw RFU value [2, 5] [RFU] | % released of total OsteoSense [2, 6] [%] | % released of total reference value [2, 6] [%] | Raw RFU value [2, 6] [RFU] | % released of total OsteoSense [2, 7] [%] | % released of total reference value [2, 7] [%] | Raw RFU value [2, 7] [RFU] | % released of total OsteoSense [2, 8] [%] | also measured
835 nm | 800 | CC1(C)C(/C=C/C=C/C=C/C=C2\N(CCCCS(=O)(=O)O)c3ccc4ccccc4c3C2(C)C)=[N+](CCCCS(=O)(=O)[O-])c2ccc3ccccc3c21 [Indocyanine Green] | Weak | – | – | – | – | – | – | – | – | – | – | – | – | – | – | – | – | – | –
700 nm | 600 | C1=Cc2cc3ccc(cc4nc(cc5ccc(cc1n2)[nH]5)C=C4)[nH]3 [Porphyrin] | Good | Fluorescence of an early stage caries lesion was observed | – | – | – | – | – | – | – | – | – | – | – | – | – | – | – | – | –
– | – | O=P([O-])(O)O.[Na+] [sodium phosphate monobasic (M), sodium phosphate monobasic] | – | – | 0.60 | 2.51 | 0.22 | 3.10 | 3.65 | 1.16 | 6.36 | 9.73 | 2.38 | 5.34 | 11.39 | 2.00 | 10.41 | 13.11 | 3.90 | 23.87 | % released of total reference value [2, 8]: 31.74%; Raw RFU value [2, 8]: 8.95 RFU; % released of total OsteoSense [2, 9]: 10.27%; % released of total reference value [2, 9]: 20.25%; Raw RFU value [2, 9]: 3.85 RFU; % released of total OsteoSense [2, 10]: 23.92%; % released of total reference value [2, 10]: 32.36%; Raw RFU value [2, 10]: 8.97 RFU; % released of total OsteoSense [2, 11]: 32.44%; % released of total reference value [2, 11]: 45.17%; Raw RFU value [2, 11]: 12.16 RFU; % released of total OsteoSense [2, 12]: 20.04%; % released of total reference value [2, 12]: 39.19%; Raw RFU value [2, 12]: 7.51 RFU; % released of total OsteoSense [2, 13]: 27.67%; % released of total reference value [2, 13]: 50.11%; Raw RFU value [2, 13]: 10.37 RFU; % released of total OsteoSense [2, 14]: 33.90%; % released of total reference value [2, 14]: 51.43%; Raw RFU value [2, 14]: 12.71 RFU
– | – | O=P(O)(O)CP(=O)(O)O [methylene phosphoric acid (MDP), methylene phosphoric acid] | – | – | 1.45 | 1.54 | 0.54 | 2.49 | 2.11 | 0.93 | 3.59 | 2.50 | 1.35 | 23.89 | 32.07 | 8.96 | 34.33 | 30.09 | 12.88 | 35.61 | % released of total reference value [2, 8]: 27.41%; Raw RFU value [2, 8]: 13.35 RFU; % released of total OsteoSense [2, 9]: 34.23%; % released of total reference value [2, 9]: 37.57%; Raw RFU value [2, 9]: 12.83 RFU; % released of total OsteoSense [2, 10]: 56.56%; % released of total reference value [2, 10]: 55.84%; Raw RFU value [2, 10]: 21.21 RFU; % released of total OsteoSense [2, 11]: 59.77%; % released of total reference value [2, 11]: 41.32%; Raw RFU value [2, 11]: 22.41 RFU; % released of total OsteoSense [2, 13]: −0.13%; Raw RFU value [2, 13]: −0.05 RFU; relative efficacy in removing OsteoSense 750 from HA ([2]; compared with the other agents): remove more OsteoSense 750 from HA than sodium phosphate monobasic or sodium phosphate dibasic at each concentration; also recorded: generally most effective for removing OsteoSense 750

Structure (SMILES) | emission wavelength (nm) [1] | excitation/absorbance wavelength (nm) [1] [nm] | degree of detection [1] | optical observation of early stage caries lesion with bound probe (photograph) [1] | % released of total OsteoSense [2, 3] [%] | % released of total reference value [2, 3] [%] | Raw RFU value [2, 3] [RFU] | % released of total OsteoSense [2, 4] [%] | % released of total reference value [2, 4] [%] | Raw RFU value [2, 4] [RFU] | % released of total OsteoSense [2, 5] [%] | % released of total reference value [2, 5] [%] | Raw RFU value [2, 5] [RFU] | % released of total OsteoSense [2, 6] [%] | % released of total reference value [2, 6] [%] | Raw RFU value [2, 6] [RFU] | % released of total OsteoSense [2, 7] [%] | % released of total reference value [2, 7] [%] | Raw RFU value [2, 7] [RFU] | % released of total OsteoSense [2, 8] [%] | also measured
C=Cc1c(C)c2cc3nc(c4c5[n-]c(cc6nc(cc1[n-]2)C(C)=C6CC)c(C)c5C(=O)[C@@H]4C(=O)OC)[C@@H](CCC(=O)OC/C=C(\C)CCC[C@H](C)CCC[C@H](C)CCCC(C)C)[C@@H]3C.[Mg+2] [Chlorophyll A] | 670-900 nm | 614 | Good | Fluorescence of an early stage caries lesion was observed | – | – | – | – | – | – | – | – | – | – | – | – | – | – | – | – | –
